{"source": "patent US20090291857A1", "about": "“METHODS TO IDENTIFY INHIBITORS OF THE UNFOLDED PROTEIN RESPONSE” (THE BOARD OF TRUSTEES OF THE LELAND STANFORD JUNIOR …, priority 2006, published 2009)", "key": {"XBP-1s": {"tested_on": "XBP-1s", "experiment": "Western immunoblot analysis of XBP-1s in HT1080 cells", "type": "cell-based, human", "conditions": "2 μM; for levels of XBP-1s under hypoxia: 24 hours of hypoxia", "method": "Cells were harvested, lysed, and analyzed by Western blot using anti-XBP-1 antisera (lower panel) or anti-HIF-1 antisera (top panel) to confirm hypoxia exposure.\nCells (2×10^6) were cultured in 10-cm dishes, collected using a cell scraper at 4° C., and lysed by addition of 150 μl cell lysis buffer [50 mM Tris pH 7.4, 150 mM NaCl, 10% glycerol, 0.5% Triton X-100. 0.5% NP-40, 2 mM Na3VO4, 20 mM beta-glycerophosphate, 10 mM NaF, 1 mM DTT, 1 mM PMSF). Lysates were centrifuged for 5 min at 10,000×g, and proteins (˜40 μg) were resolved by SDS-PAGE followed by semi-dry transfer to nitrocellulose membranes. Membranes were blocked in TBS-5% milk supplemented with 0.1% Tween-20. The blots were then probed overnight with relevant antibodies, washed, and incubated for 2 hours with species-specific secondary antibodies conjugated to horseradish peroxidase. After washing in block solution, immunoreactive material was detected by enhanced chemiluminescence (SuperSignal West Dura Extended, Pierce, Inc., Rockville, Ill.).\nA. XBP-luciferase reporter construct. Firefly luciferase was inserted downstream of the IRE1α splice site in human XBP-1 to enable the conditional translation of luciferase under ER stress in an IRE1α-dependent manner. B. Selective inhibition of the XBP-luciferase reporter by irestatin 9389. […] After 24 hours, luciferase activity was analyzed in an automated plate reader. For each cell line, values are expressed as the percent inhibition of the median for Tm/Tg-treated wells, corrected for background. […] Values are expressed as the fold increases over uninduced levels. […] Cells were harvested, lysed, and analyzed by immunoblotting with antisera specific for HIF-1α (top), XBP-1s (middle) or actin (bottom). […] Total RNA was analyzed by Northern blotting using radiolabeled probes specific for P58^IPK or DER-1. […]\nSince these assays employed a chimeric XBP-luciferase substrate, we next determined whether irestatin 9389 could inhibit the function of endogenous XBP-1s. […]"}, "[1]": {"experiment": "Toxicity of increasing doses in SCID mice", "type": "in vivo", "method": "Female 4-6 week-old SCID (B6.CB17) mice supplied by Stanford University Animal Facility were housed in the same facility (American Association of Laboratory Animal Care-approved) with 12 hour light cycles. Food and water were provided ad libitum. All experiments were approved by the institutional care and use committee. The potential toxicities of irestatin 9389 were examined in SCID mice injected i.p. once daily over 4 consecutive days with increasing doses of irestatin 9389 or vehicle control. […] For xenografts, 2×10^6 HT1080 fibrosarcoma cells were resuspended in 50-75 μl PBS and injected s.c. in the dorsal flanks of host mice. When the implanted tumors reached a mean volume of ˜150 mm^3, mice were randomly assigned into different treatment groups. Mice were dosed by i.p. bolus injection with either vehicle (50% DMSO, 20% cremophor EL, 30% ethanol) or irestatin 9389 (50 mg/kg). Tumors (6-8 per group) were measured every 2-4 days with calipers. Tumor volume was calculated using the formula [(W^2×L) 0.52] where W=width and L=length."}}}
{"smiles": "Cc1csc(NC(=O)CSc2nc3c(c(C(F)(F)F)c2C#N)CCC3)n1", "note": "[Compound 9389]", "values": [{"measurement": "levels of XBP-1s under hypoxia", "setting": "XBP-1s; listed as Irestatin 9389", "result": "blocks the accumulation of XBP-1s"}, {"measurement": "levels of XBP-1s under hypoxia", "setting": "XBP-1s; listed as irestatin 9389", "result": "decreased levels of XBP-1s"}, {"measurement": "accumulation of XBP-1s following treatment with Tm", "setting": "XBP-1s; Tm 4 μg/ml 20 hours", "result": "blocked the accumulation of XBP-1s"}, {"measurement": "toxicity of dosing regimen", "setting": "[1]; SCID mice, i.p., 50-60 mg/kg", "result": "without apparent toxicity"}, {"measurement": "dosing regimen of 50-60 mg/kg relative to LD50", "setting": "[1]; female, SCID (B6.CB17), mouse, in vivo, 4 days", "result": "75 % of the LD50 value"}]}
